According to PubChem BioAssay (NCI):
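Values below derive from 48-hour exposures of cells grown in 96-well plates, with endpoints linearly interpolated between the two concentrations bracketing the appropriate inhibition level. Here, GI50 denotes the concentration required for 50% inhibition of growth. TGI: total growth inhibition.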

What was measured:
Assay in all cases: NCI-60 cell line screen, 48 h
[1] = test system: HT29 colon
[2] = test system: MDA-N
[3] = test system: MOLT-4 leukemia
[4] = test system: HCT-15 colon
[5] = test system: SK-MEL-28 melanoma
[6] = test system: MDA-MB-231 breast
[7] = test system: SK-MEL-2 melanoma
[8] = test system: SNB-75 CNS
[9] = test system: COLO 205 colon
[10] = test system: HCT-116 colon
[11] = test system: SF-295 CNS
[12] = test system: HS 578T breast
[13] = test system: SK-OV-3 ovarian
[14] = test system: NCI-H23 lung
[15] = test system: M14 melanoma
[16] = test system: SR leukemia
[17] = test system: UACC-257 melanoma
[18] = test system: CAKI-1 renal
[19] = test system: LOX IMVI melanoma
[20] = test system: TK-10 renal
[21] = test system: SW-620 colon
[22] = test system: OVCAR-5 ovarian
[23] = test system: RXF 393 renal
[24] = test system: SF-268 CNS
[25] = test system: OVCAR-4 ovarian
[26] = test system: EKVX NSCLC
[27] = test system: MALME-3M melanoma
[28] = test system: DU-145 prostate
[29] = test system: KM12 colon
[30] = test system: NCI-H226 lung
[31] = test system: OVCAR-8 ovarian
[32] = test system: IGROV1 ovarian
[33] = test system: PC-3 prostate
[34] = test system: SK-MEL-5 melanoma
[35] = test system: RPMI-8226 leukemia
[36] = test system: HOP-62 NSCLC
[37] = test system: MCF7 breast
[38] = test system: HCC-2998 colon
[39] = test system: SN12C renal
[40] = test system: NCI-H522 lung
[41] = test system: ACHN renal
[42] = test system: U251 CNS
[43] = test system: NCI/ADR-RES ovarian
[44] = test system: SNB-19 CNS
[45] = test system: A498 renal
[46] = test system: OVCAR-3 ovarian
[47] = test system: MDA-MB-435
[48] = test system: 786-0 renal
[49] = test system: BT-549 breast
[50] = test system: CCRF-CEM leukemia
[51] = test system: A549 NSCLC
[52] = test system: NCI-H460 lung
[53] = test system: HOP-92 NSCLC
[54] = test system: SF-539 CNS
[55] = test system: HL-60(TB) leukemia
[56] = test system: K-562 leukemia
[57] = test system: T-47D breast
[58] = test system: UO-31 renal
[59] = test system: UACC-62 melanoma

Structure (SMILES): Cc1cc(O)c2c(=O)c3ccccc3[nH]c2c1
- TGI [1]: 38 µM
- TGI [2]: > 100 µM
- TGI [3]: > 100 µM
- TGI [4]: 52.1 µM
- TGI [5]: > 100 µM
- TGI [6]: > 100 µM
- TGI [7]: > 100 µM
- TGI [8]: 93.6 µM
- TGI [9]: 42 µM
- TGI [10]: 65.2 µM
- TGI [11]: 51.2 µM
- TGI [12]: 84.6 µM
- TGI [13]: > 100 µM
- TGI [14]: > 100 µM
- TGI [15]: 52.6 µM
- TGI [16]: 52.6 µM
- TGI [17]: 54.2 µM
- TGI [18]: 90.6 µM
- TGI [19]: 64.3 µM
- TGI [20]: > 100 µM
- TGI [21]: > 100 µM
- TGI [22]: > 100 µM
- TGI [23]: 82.8 µM
- TGI [24]: > 100 µM
- TGI [25]: 75.8 µM
- TGI [26]: > 100 µM
- TGI [27]: > 100 µM
- TGI [28]: > 100 µM
- TGI [29]: > 100 µM
- TGI [30]: 94.3 µM
- TGI [31]: 70.2 µM
- TGI [32]: 94.2 µM
- TGI [33]: 77.3 µM
- TGI [34]: 31.1 µM
- TGI [35]: 41 µM
- TGI [36]: 71.2 µM
- TGI [37]: > 100 µM
- TGI [38]: > 100 µM
- TGI [39]: > 100 µM
- TGI [40]: 16 µM
- TGI [41]: > 100 µM
- TGI [42]: > 100 µM
- TGI [43]: > 100 µM
- TGI [44]: > 100 µM
- TGI [45]: 82.6 µM
- TGI [46]: > 100 µM
- TGI [47]: > 100 µM
- TGI [48]: > 100 µM
- TGI [49]: 85.3 µM
- TGI [50]: > 100 µM
- TGI [51]: > 100 µM
- TGI [52]: > 100 µM
- TGI [53]: > 100 µM
- TGI [54]: 33 µM
- TGI [55]: 64.7 µM

Structure (SMILES): CC12CCC(O)CC1CCC1C2CCC2(C)C(C3=CC(=O)OC3)CCC12O (centres undefined)
- TGI [1]: 13.6 µM
- TGI [2]: 6.38 µM
- TGI [3]: > 100 µM
- GI50 [4]: 2.39 µM
- TGI [4]: 5.75 µM
- TGI [5]: 33.7 µM
- TGI [6]: > 100 µM
- TGI [7]: 22.7 µM
- TGI [8]: 28.7 µM
- TGI [56]: > 90.5 µM
- TGI [9]: 12.2 µM
- TGI [10]: 4.44 µM
- TGI [57]: 14.7 µM
- TGI [11]: 10.8 µM
- TGI [12]: > 100 µM
- TGI [13]: 18.5 µM
- TGI [14]: 4.76 µM
- TGI [15]: 19 µM
- TGI [16]: > 100 µM
- TGI [17]: > 43.4 µM
- TGI [18]: > 19.8 µM
- TGI [19]: 10.6 µM
- TGI [20]: > 35.4 µM
- TGI [21]: > 36.8 µM
- TGI [22]: 16.9 µM
- TGI [23]: 3.55 µM
- TGI [24]: 7.07 µM
- TGI [25]: 5.39 µM
- TGI [26]: 5.88 µM
- TGI [27]: 4.89 µM
- TGI [28]: 2.85 µM
- TGI [29]: > 43.3 µM
- TGI [30]: 27.7 µM
- TGI [31]: 10.1 µM
- TGI [32]: 19.4 µM
- TGI [33]: 13.1 µM
- TGI [34]: 1.98 µM
- TGI [58]: 8.23 µM
- TGI [35]: > 30 µM
- TGI [36]: 6.01 µM
- TGI [38]: 10.2 µM
- TGI [39]: 4.72 µM
- TGI [40]: 4.9 µM
- TGI [41]: 10.3 µM
- TGI [59]: 12.8 µM
- TGI [42]: 27.8 µM
- TGI [43]: 5.77 µM
- TGI [44]: 12.8 µM
- TGI [45]: 25.6 µM
- TGI [46]: 10.3 µM
- TGI [47]: 9.38 µM
- TGI [48]: 4.78 µM
- TGI [49]: 4.53 µM
- TGI [50]: > 100 µM
- TGI [51]: 1.96 µM
- TGI [52]: 3.99 µM
- TGI [53]: > 41.9 µM
- TGI [54]: 3.2 µM
- TGI [55]: 8.36 µM
